Earlier results in US7160560B2, “Skin-care composition” (L'Oreal S.A., priority 2003, dated 2007).

Experiments:
[1] = test system: human keratinocytes
[2] = test system: human dermal fibroblasts

CC1=N[C@H](C(=O)O)CCN1 [ectoin, (s)-1,4,5,6-tetrahydro-2-methyl-4-pyrimidinecarboxylic acid]
signaling cascade brought about by UVA-radiation [1]: inhibits
UVA radiation-induced formation of mitochondrial DNA mutations [2]: inhibits
